Results: patent US10653672B2, “Myogenesis promotor, muscle atrophy inhibitor, medical composition and TAZ activator” (National University Corporation Tokyo Medical and Dental …, priority 2014, dated 2020)
“And” between values parts separate entries of the source, which are not always exact repeats. Equal entries are not always repeated.

Key:
[1] = tested on: binding of Pax3 to Myf5 promoter; experiment: Chromatin immunoprecipitation, Pax3 on Myf5 promoter; type: cell-based, mouse; conditions: C2C12 cells; 10 μM; differentiation condition 24 hours; protein G sepharose without antibody; listed as IBS008738
Method: (§1) (1) Chromatin immunoprecipitation of MyoD, TEAD and Pax3 was performed on C2C12 cells that were cultured under differentiation condition for 24 hours in a culture medium added with IBS008738 or DMSO at a concentration of 10 μM. Myogenin, connective tissue growth factor (CTGF) and MyfS were detected by PCR, respectively. The immunoprecipitation with protein G sepharose was used as a control (Mock ChIP). […] The line and the error bar in the figure indicate the average value and the standard error, *p<0.05, ***p<0.001, ns refers to not significant.
(§2) The Chromatin immunoprecipitation was performed according to the following process. C2C12 cells were cultured to confluence, and then treated with IBS008738 or DMSO at a concentration of 10 μM in a differentiation medium for 24 hours. The cells were crosslinked in 1.42% (v/v) formaldehyde for 15 minutes, and the reaction was quenched by treating with 125 mM glycine for 5 minutes. […] Shearing was analyzed by agarose gel electrophoresis. […] The immunoprecipitated DNA fragments were isolated using Chelex-100 resin and diluted by 1:2.5 for quantitative PCR analysis. Input normalized relative abundance was determined.

[2] = tested on: C2C12 cells; experiment: Muscle formation in C2C12 cells with or without TAZ knockdown (anti-MHC immunostaining, immunoblotting); type: cell-based, mouse; conditions: C2C12 cells with TAZ not knocked down (si Cont); 10 μM; 72 hours
Method: (2) C2C12 cells with TAZ knocked down by a method described in Sci Signal 2:ra59 (si TAZ) and C2C12 cells with TAZ not knocked down (si Cont) were cultured for 72 hours in a culture medium added with IBS008738 or DMSO at a concentration of 10 μM, respectively, and were immunostained with an anti-MHC antibody (the white portion in FIG. 3B, the bar is 100 μm). Further, immunoblotting was performed with an anti-MHC antibody and an anti-TAZ antibody (see FIG. 3C). […] Further, the expression of MHC was lost by the knockdown of TAZ.
Human TAZ and mouse TAZ were knocked down in MCF10A cells and C2C12 cells as described previously (Ikeda M et al., Sci Signal 2:ra59). The double strand (ds) RNAs used are human TAZ (Ambion s24789) and mouse TAZ (Dharmacon siRNA D-041057).

[3] = tested on: A431 cells; experiment: Immunoblotting of EMT markers in A431 cells; type: cell-based
Method: (1) A431 cells, (epidermoid carcinoma), A549 cells (adenocarcinomic human alveolar basal epithelial cell) and HCT116 cells (human colon cancer) were treated with IBS008738 or DMSO, respectively, and evaluated by immunoblotting.
HEK293, A431, A549, HCT116, MCF7 and SW480 cells were cultured in Dulbecco's Modified Eagle Medium (DMEM) containing 10% fetal bovine serum (FBS), 10 mM HEPES-NaOH at pH 7.4, 100 U/ml penicillin and 100 mg/I streptomycin under 5% CO2 at 37° C.

[4] = tested on: C2C12 cells; experiment: Antagonistic action on myostatin in C2C12 cells; type: cell-based, mouse; conditions: TAZ knocked down (si TAZ); with myostatin; differentiation condition 72 hours
Description: Myostatin is a protein and a member of a transforming growth factor […] superfamily, and inhibits muscle growth and differentiation. Myostatin binds activin type IIB receptor and triggers SMAD2/3-dependent signaling. Since TAZ interacts with SMAD2/3, effects of IBS008738 on the signaling of myostatin was examined (FIGS. 8A to 8C). The line in the figures is 100 μm. The line and the error bar indicate the average value and the standard error, *p<0.05, […], ***p<0.001, ns refers to not significant.
(1) C2C12 cells in which TAZ was knocked down (si TAZ) and C2C12 cells in which TAZ was not knocked down (si Cont) were grown to confluence, respectively, A stock solution of 100 μg/mL myostatin in 4 mM […] with 0.1% (w/v) BSA and a stock solution of 10 mM IBS008738 in DMSO were prepared. The cells were cultured at differentiation condition for 72 hours in a 1 mL medium with 1 μL DMSO, a 1 mL medium with 1 μL myostatin stock solution, and a 1 mL medium with 1 μL IBS008738 stock solution. As a result, muscle formation of the C2C12 cells was inhibited in the case with only myostatin, but muscle formation of the C2C12 cells was recovered in the case with myostatin and IBS008738.
(2) The fusion index of C2C12 cells in which TAZ was knocked down (si TAZ) and C2C12 cells in which TAZ was not knocked down (si Cont), after being cultured under differentiation condition for 72 hours, was analyzed.
Expression of MHC of C2C12 cells in which TAZ was knocked down (si TAZ) and C2C12 cells in which TAZ was not knocked down (si Cont), after being cultured under differentiation condition for 72 hours, was analyzed by immunoblotting. As a result, expression of MHC decreased in the case with only myostatin, whereas it recovered in the case with myostatin and IBS008738 (see FIG. 8C).

[5] = tested on: binding of MyoD to myogenin promoter; experiment: Chromatin immunoprecipitation, MyoD on myogenin promoter; type: cell-based, mouse; conditions: C2C12 cells; 10 μM; differentiation condition 24 hours; protein G sepharose without antibody; listed as IBS008738
Method: as §1, §2

[6] = tested on: Balb/c ByJ mice; experiment: Suppression of dexamethasone-induced muscle atrophy; type: in vivo, mouse
Method: (1) A 25 mg/mL dexamethasone stock solution in DMSO was prepared. Three Balb/c ByJ mice (6 week, female) were intraperitoneally injected with 20 μL of the dexamethasone stock solution, each day for a week. As a control group, three other individuals were injected with 20 μL of DMSO. On day 9, 11 and 13, each group of the mice was injected with a solution prepared by dissolving 0.3 μL of 10 mM IBS008738 stock solution in 100 μL PBS, on one hindlimb muscle, and with 100 μL PBS on the other hindlimb muscle. The mice were sacrificed at day 14, and the muscle tissues were fixed and stained with hematoxylin and eosin (see FIG. 8D). It was observed that the muscle fibers of the mice administered with dexamethasone were shrinked.
(2) The cross section of the muscle fibers of the individual intraperitoneally injected with dexamethasone was stained with an anti-laminin antibody and observed. […] The cross-section area of muscle fibers (500 per individual) of the three mice was measured. As a result, the area of the individual injected with IBS008738 was greater than the area of the individual injected with DMSO (see FIG. 9F). The cross-section area of muscle fibers was analyzed with Image J software.

Cc1ccc(-n2cnc(/N=C/N3CCOCC3)c2C(=O)c2ccccc2)cc1 [exemplary compound 1]
Input %, Myf5-p, Mock ChIP [1]: 0.14% and 0.13% and 0.16%
muscle formation [2]: promoted muscle formation
EMT markers (fibronectin, E-cadherin, N-cadherin and vimentin) compared with DMSO [3]: no significant difference
muscle formation of the C2C12 cells [4]: did not recover
Input %, myogenin-p, Mock ChIP [5]: 0.05% and 0.08%
cross-section area of muscle fibers compared with DMSO ([6]; dexamethasone mice, 500 fibers per individual, three mice): greater
shrinkage of muscle fibers compared with DMSO ([6]; dexamethasone mice, cross section stained with anti-laminin antibody): more suppressed
effect on muscle fibers ([6]; mice intraperitoneally injected with DMSO (no dexamethasone), IBS008738 into hindlimb muscle on day 9, 11 and 13, hematoxylin and eosin): No significant effect
shrinkage of muscle fibers ([6]; mice intraperitoneally injected with dexamethasone, IBS008738 into hindlimb muscle on day 9, 11 and 13, hematoxylin and eosin, day 14): partly suppressed
